The source of these data is the METLIN SMRT retention time set (Domingo-Almenara et al. 2019).

This series is described as follows: gradient 5% acetonitrile 3 min, to 50% in 2 min, to 85% in 15 min, held 3 min, 100 µL/min. The note with it: column: Zorbax Extend-C18 2.1 x 50 mm; eluents: water / acetonitrile, 0.1% formic acid. The method in brief:
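Over 3 months, pure standards in mixtures of ~100 molecules were run by HPLC coupled to a quadrupole time-of-flight mass spectrometer in positive and negative ionization mode. The column was a Zorbax Extend-C18 (2.1 × 50 mm, 1.8 μm) at 100 μL/min, eluted with water and acetonitrile each holding 0.1% formic acid, with 40 μL dead and 900 μL dwell volumes. Retention time was determined from adduct peaks chosen by software and checked manually.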
`CCOC(=O)C1=C(CN2CCN(c3ccccn3)CC2)NC(=O)NC1c1ccc(Cl)cc1` (configuration not stated) showed an RP-LC retention time of 643 s.
As for `O=C(Nc1ccccc1)C(=O)Nc1ccccc1[N+](=O)[O-]`, the RP-LC retention time was 917 s.
`O=C(c1ccsc1)N1CCC2(CC1)NC(=O)N(Cc1ccccc1)C2=O` displayed an RP-LC retention time of 754 s.
`Cn1ncn2cc(S(=O)(=O)N3CCN(c4ccccn4)CC3)cc2c1=O` had an RP-LC retention time of 578 s.
For `COc1cc(-c2nc3ccc(Cl)cn3c2Nc2ccc(Cl)cc2)ccc1O`, the RP-LC retention time worked out at 746 s.
As for `COc1ccccc1OCc1nc(-c2ccc3ncn(C(C)C)c3c2)no1`, the RP-LC retention time came out at 729 s.
`CN(CCc1noc(COc2ccc(F)cc2)n1)C(=O)Nc1cccc(Br)c1` registered an RP-LC retention time of 971 s.
With `CC1CCN(S(=O)(=O)c2ccc(-c3nnc(C(=O)NCCc4ccccc4)o3)cc2)CC1`, the RP-LC retention time was found to be 1100 s.
On to `CCOC(=O)c1c(C)[nH]c(C(=O)N2CCCC(C(=O)NCCN3CCCCC3)C2)c1C` (configuration not stated), for which the RP-LC retention time is 620 s.
Regarding `COc1ccc(-c2nnc(-c3ccc(C)c(S(=O)(=O)NC4CCCC4)c3)o2)cc1OC`, the RP-LC retention time stood at 1010 s.
`COc1ccccc1-c1nc2cnccn2c1NCCC(=O)Nc1ccc2c(c1)OCCO2`: the RP-LC retention time worked out at 672 s.
Compound `CCOc1ccc(-c2nc(Cn3ccn4nc(-c5ccc(OC)cc5)cc4c3=O)c(C)o2)cc1OC` yielded an RP-LC retention time of 1030 s.
Compound `O=C(Nc1ccc(N2CCOCC2)cc1)c1ccc2nc(-c3ccccc3)cn2c1` had an RP-LC retention time of 646 s.
`COc1ccc(N2C=C(C(=O)N3CCCCC3)S(=O)(=O)c3ccccc32)cc1` gave an RP-LC retention time of 859 s.
In the case of `Cc1ccc(CSc2nnc(-c3ccccc3Cl)o2)cc1`, the RP-LC retention time amounted to 1190 s.
As to `Fc1ccc(CN2CCc3nc(N4CCN(c5ccccc5F)CC4)ncc3C2)cc1F`, the RP-LC retention time was 806 s.
Compound `Cc1ccc(C)c(C(=O)NCc2ccc3c(c2)ncn3C)c1` displayed an RP-LC retention time of 604 s.
`CC1CCCC(C)N1CCCNC(=O)C1CCCN(c2ncnc3c2nc2n3CCCCC2)C1` (configuration not stated): the RP-LC retention time came to 592 s.
Regarding `COc1ccc(Br)cc1CNC(=O)CCC(=O)N1Cc2cccn2-c2ccccc21`, the RP-LC retention time turned out to be 993 s.
For the compound `CCOC(=O)c1ccccc1NC(=O)Cn1nc2cc(-c3ccccn3)nc(C)n2c1=O`, the RP-LC retention time was determined as 875 s.
Under `CC(=O)c1c(N(C)CCO)nc2ccc(Cl)cc2c1-c1ccccc1` stands 834 s.
As to `CCc1nc2cc(-c3noc(-c4ccnn4C)n3)ccc2o1`, the RP-LC retention time is 971 s.
`CCCCOc1ccc(NC(=O)c2oc3ccc(F)cc3c2C)c2cccnc12` displayed an RP-LC retention time of 850 s.
In turn, `Cc1sc(NC(=O)c2cccc(Cn3cc(Br)cn3)c2)nc1-c1ccccc1` came in with an RP-LC retention time of 1190 s.
The compound `COc1ccc(N2CC(c3noc(-c4ccc(OC)cc4C)n3)CC2=O)cc1` (configuration not stated) yielded an RP-LC retention time of 992 s.
As to `Cc1cc(OCC(=O)N[C@H](C(=O)O)C(C)C)c2c3c(c(=O)oc2c1)CCC3`, the RP-LC retention time was determined as 788 s.
Under `COCC1CN(C(C)=O)CC12CCN(C(=O)CSC)CC2` (configuration not stated) stands 602 s.
In turn, `CCOc1ccc(CNC(=O)C2CCCN(c3ccc(=O)n(-c4ccc(C)c(Cl)c4)n3)C2)cc1` (configuration not stated) registered an RP-LC retention time of 830 s.
Take `O=C(c1cccc(Br)c1)N1CCN(CCn2cccn2)CC1`: the RP-LC retention time came out at 554 s.
`CCC(C)NC(=O)c1ccc(CN2CCN(Cc3ccc(F)cc3)C(=O)C2=O)cc1` (configuration not stated) gave an RP-LC retention time of 739 s.
For the compound `CCCOc1ccc(-c2nc(N3CCCCCC3)c3ccccc3n2)cc1`, the RP-LC retention time worked out at 971 s.
Under `O=C(Nc1ccccc1C(=O)N1CCN(c2ccccc2F)CC1)C1=CSCCO1` stands 927 s.
